Measured values from patent US20240360153A1 (Regeneron Pharmaceuticals, Inc., priority 2023, published 2024).

Tests used:
[1] = In vitro microsomal metabolic stability, human liver microsomes; assay type: in vitro ADME; details: for Remaining (T = 60 min) / Remaining (T = NCF60 min) / half-life at 1 µM: Human liver microsomes; for Remaining (T = 60 min): with NADPH; for Remaining (T = NCF60 min): without NADPH regenerating system; for Remaining (T = 60 min) / Remaining (T = NCF60 min): 60 min; for CLint scaled at 1 µM / microsomal CLint at 1 µM: human, human liver microsomes; for CLint scaled at 1 µM / microsomal CLint at 1 µM / half-life at 1 µM: pH 7.2; for half-life at 1 µM: 0.5 mg/ml protein, NADPH
Protocol: (§1) Buffers: PBK Buffer: 50 mM potassium phosphate buffer (PPB), pH 7.2, with 3.3 mM Magnesium Chloride.
(§2) TA Intermediate solution: Compound or control (3 μL) diluted from stock solution (10 mM) with 297 μL 90.0% methanol/water. (Conc: 100 μM; 1.0% DMSO, 89.1% MeOH).
(§3) Control cocktail intermediate solution: Each control (3 μL) was diluted with 291 μL 90.0% methanol/water.
(§4) Diluted TA intermediate stock solution and PC control stock were made by transferring 80 μL of 100 μM TA stock solution into new tubes and then adding 720 μL of 1.0% DMSO in 50 mM potassium phosphate buffer (conc. 10 μM; 1.0% DMSO, 8.91% MeOH).
(§5) Preparation of Liver microsomes working solution (1.25×)(final Conc.: 0.5 mg/mL).
(§6) Acetonitrile:methanol (9:1, v/v)(including 200 ng/mL tolbutamide and 200 ng/ml labetalol hydrochloride as internal standards).
(§7) Working solution: Intermediate solution (80 μL) was diluted with 720 μL 1.0% DMSO in 50 mM potassium phosphate buffer (Conc.: 10 μM; 1.0% DMSO, 8.91% MeOH)
(§8) Procedure: Stock solution was added to each of the time point plates. Microsomes solution (360 μL/well), TA/PC (45 μL/well), and NADPH (45 μL/well) min. (Conc: 1.0 μM, 0.10% DMSO, 0.891% MeOH) were added to the incubation plates. To the T60 and NCF60 plate, TA (15 ul/well) and Microsomes (120 ul) were added. To the blank plate, microsome (50 ul/well) with stop solution (150 ul/well) were added. At the end of each time point, 50 ul/well was aliquoted from the incubation plate. The sampling plates were shaken for approximately 10 min. on a shaker and the samples were centrifuged at 4000 rpm for 15 min. Supernatant (120 μL) was transferred for LC/MS/MS.Compounds from Table 3 were incubated at 37° C. with liver microsomes (pooled from multiple donors) at 1 μM in the presence of a NADPH regenerating system at 0.5 mg/ml microsomal protein. Positive controls included testosterone (3A4 substrate), propafenone (2D6) and diclofenac (2C9), which were incubated with microsomes in the presence of an NADPH regenerating system. At time points (0, 5, 10, 20, 30 and 60 minutes), samples were removed and immediately mixed with cold acetonitrile containing the internal standard (IS). Test compounds incubated with microsomes without the NADPH regenerating system for 60 min are also included. A single point for each test condition (n=1) was obtained, and samples were analyzed by LC/MS/MS. Disappearance of the test compound was assessed based on peak area ratios of analyte/IS (no standard curve).

[2] = In vitro microsomal metabolic stability, CD-1 mouse liver microsomes; assay type: in vitro ADME; details: for CLint scaled at 1 µM / microsomal CLint at 1 µM: CD-1, mouse, mouse liver microsomes, pH 7.2; for half-life at 1 µM: CD-1, pH 7.2, 0.5 mg/ml protein, NADPH; for half-life at 1 µM / Remaining (T = 60 min) / Remaining (T = NCF60 min): Mouse liver microsomes; for Remaining (T = 60 min): with NADPH; for Remaining (T = NCF60 min): without NADPH regenerating system; for Remaining (T = 60 min) / Remaining (T = NCF60 min): 60 min
Protocol: as §1, §2, §3, §4, §5, §6, §7, §8

[3] = system: S6K1 (Thr389) phosphorylation (mTORC1 activity) in FKBP12 knock-out 293T cells; experiment: Inhibition of S6K1 (Thr389) phosphorylation in FKBP12 knock-out 293T cells (ELISA); assay type: cell-based, human; details: for selectivity for FKBP12 compared with RAD001 (in words): wild-type versus FKBP12 knock-out cells
Text: Example Generation of FKBP 12 knock-out cells. A CRISPR/Cas9 system was used to deliver ribonucleoprotein complexes containing guide RNA sequences that target FKBP12 (ac[…], location 1369062; ccactactcac[…], location 1369181) in HEK293T cells using Lipofectamine CRISPRMAX transfection reagent (Invitrogen CMAX00008). Cell clones were screened by immunoblotting with anti-FKBP-specific antibody (Novus, NB300-508). Single cells that were deficient for FKBP12 protein were selected and cloned.
(§9) Treatment of wild-type (WT) and FKBP12 knock-out 293T cells with RAD001 (everolimus) and test compounds. WT and FKBP12 knock-out 293T cells were cultured in Dulbecco's modified Eagle's medium (Gibco #11971-025) supplemented with 10% fetal bovine serum (Gibco #26140-079). Cells were plated at a density of 15,000 cells per well in poly-D-Lysine coated 96-well plates (Corning, #354461) and were incubated at 37° C., 5% CO2 for 24 hours until they reached ˜80% confluence. Cells were treated with RAD001 or test compounds reconstituted in dimethyl sulfoxide (DMSO) using a 8-11-point dose range, from 0.001 pM to 10 μM. All treatments were performed in duplicates for 2 hours at 37° C. Cell culture media supplemented with blank dimethyl sulfoxide (DMSO) was used as a negative control for all compounds. Phosphorylated amounts of S6K1 (Thr389) were measured using an ELISA kit (Invitrogen 85-86052-11), following the manufacture's protocol.
(§10) S6K1 is an immediate downstream target of mTORC1 and therefore phosphorylation of S6K1 at Thr389 residue is used to measure mTORC1 activity (PMID: 16968213). Amounts of phosphorylated S6K1 (Thr389) were measured in WT and FKBP12 knock-out 293T cells treated with either RAD001 or Compound 44 (FIGS. 1A and 1B), and Compound 45 (FIGS. 1C and 1D).

[4] = system: S6K1 (Thr389) phosphorylation (mTORC1 activity) in wild-type (WT) 293T cells; experiment: Inhibition of S6K1 (Thr389) phosphorylation in wild-type 293T cells (ELISA); assay type: cell-based, human; details: for IC50: Homo sapiens, HEK-293T, 2 h, wild-type 293T cells, 2 hours treatment; for fold lower potency compared with RAD001 (by IC50) / extent of inhibition of S6K1 (Thr389) phosphorylation: wild-type cells; for extent of inhibition of S6K1 (Thr389) phosphorylation: with increasing concentrations
Protocol: as §9, §10

In the case of CO[C@@H]1C[C@H](C[C@@H](C)[C@@H]2CC[C@H](C)/C=C(\C)[C@@H](O)[C@@H](OC)C(=O)[C@H](C)C[C@H](C)/C=C/C=C/C=C(\C)C(NS(=O)(=O)c3cnoc3C)C[C@@H]3CC[C@@H](C)[C@@](O)(O3)C(=O)C(=O)N3CCCCC3C(=O)O2)CC[C@H]1O (stereo partly drawn) [Compound 51, N-((3S,6S,7E,9R,10R,12R,14S,15E,17E,19E,23S,26R,27R,34aS)-9,27-dihydroxy-3-((R)-1-((1S,3R,4R)-4-hydroxy-3-methoxycyclohexyl)propan-2-yl)-10-methoxy-6,8,12,14,20,26-hexamethyl-1,11,28,29-tetraoxo-1,4,5,6,9,10,11,12,13,14,21,22,23,24,25,26,27,28,29,31,32,33,34,34a-tetracosahydro-3H-23,27-epoxypyrido[2,1-c][1]oxa[4]azacyclohentriacontin-21-yl)-5-methylisoxazole-4-sulfonamide], the “Remaining (T = 60 min)” value [1] is reported as 0.20%, the “Remaining (T = NCF60 min)” value [1] is reported as 89% and the CLint scaled at 1 µM [1] is reported as 182 mL/min/kg. For the same compound, the microsomal CLint at 1 µM [1] was 202 µL/min/mg, the half-life at 1 µM [1] was 6.86 min and the CLint scaled at 1 µM [2] was 255 mL/min/kg. For the same compound, the microsomal CLint at 1 µM [2] was 64.3 µL/min/mg, the half-life at 1 µM [2] was 21.5 min and the “Remaining (T = 60 min)” value [2] was 15%. The “Remaining (T = NCF60 min)” value [2] was 85%, the “inhibition of S6K1 (Thr389) phosphorylation in the absence of FKBP12 (in words)” value ([3]; FKBP12 knock-out cells) was “no further inhibition at 10 μM” and the inhibition at 1 µM ([3]; Homo sapiens, HEK-293T, FKBP12 knock-out cells, 1 μM) was 18%. The “selectivity for FKBP12 compared with RAD001 (in words)” value (“selectivity for FKBP12” for short) [3] was “not completely selective to FKBP12”, the IC50 [4] was 4.53 nM and the “fold lower potency compared with RAD001 (by IC50)” value [4] was 12 fold. For the same compound, the “extent of inhibition of S6K1 (Thr389) phosphorylation” value (shortened to “extent of inhibition of S6K1”) [4] was “near complete inhibition”.
For CO[C@@H]1CC(C[C@@H](C)[C@@H]2CC[C@H](C)/C=C(\C)[C@@H](O)[C@@H](OC)C(=O)[C@H](C)C[C@H](C)/C=C/C=C/C=C(\C)C(Nc3cncc(C)n3)CC3CC[C@@H](C)[C@@](O)(O3)C(=O)C(=O)N3CCCC[C@H]3C(=O)O2)CC[C@H]1O (stereo partly drawn) [Compound 28, (3S,6S,7E,9R,10R,12R,14S,15E,17E,19E,23S,26R,27R,34aS)-9,27-dihydroxy-3-((R)-1-((1S,3R,4R)-4-hydroxy-3-methoxycyclohexyl)propan-2-yl)-10-methoxy-6,8,12,14,20,26-hexamethyl-21-((6-methylpyrazin-2-yl)amino)-5,6,9,10,12,13,14,21,22,23,24,25,26,27,32,33,34,34a-octadecahydro-3H-23,27-epoxypyrido[2,1-c][1]oxa[4]azacyclohentriacontine-1,11,28,29(4H,31H)-tetraone], the “Remaining (T = 60 min)” value [1] was 19.40%, the “Remaining (T = NCF60 min)” value [1] was 84.00% and the CLint scaled at 1 µM [1] was 47.5 mL/min/kg. The microsomal CLint at 1 µM [1] was 52.8 µL/min/mg, the half-life at 1 µM [1] was 26.3 min and the CLint scaled at 1 µM [2] was 65.7 mL/min/kg. For the same compound, the microsomal CLint at 1 µM [2] was 16.6 µL/min/mg, the half-life at 1 µM [2] was 83.5 min and the “Remaining (T = 60 min)” value [2] was 59.40%. The “Remaining (T = NCF60 min)” value [2] was 106%, the “IC50 of inhibition of S6K1 (Thr389)” value ([3]; FKBP12 knock-out 293T cells) was “not measurable/detectable” and the “inhibition of S6K1 (Thr389) phosphorylation in the absence of FKBP12 (in words)” value ([3]; FKBP12 knock-out cells) was “behaved in a similar fashion to RAD001”. The “selectivity for FKBP12” value [3] was “not greater compared with RAD001”, the IC50 [4] was 3 nM and the “extent of inhibition of S6K1” value [4] was “complete inhibition”.
In the case of CO[C@@H]1C[C@H](C[C@@H](C)[C@@H]2CC[C@H](C)/C=C(\C)[C@@H](O)[C@@H](OC)C(=O)[C@H](C)C[C@H](C)/C=C/C=C/C=C(\C)C(Nc3cccc(C)c3)C[C@@H]3CC[C@@H](C)[C@@](O)(O3)C(=O)C(=O)N3CCCCC3C(=O)O2)CC[C@H]1O (stereo partly drawn) [Compound 50, (3S,6S,7E,9R,10R,12R,14S,15E,17E,19E,23S,26R,27R,34aS)-9,27-dihydroxy-3-((R)-1-((1S,3R,4R)-4-hydroxy-3-methoxycyclohexyl)propan-2-yl)-10-methoxy-6,8,12,14,20,26-hexamethyl-21-(m-tolylamino)-5,6,9,10,12,13,14,21,22,23,24,25,26,27,32,33,34,34a-octadecahydro-3H-23,27-epoxypyrido[2,1-c][1]oxa[4]azacyclohentriacontine-1,11,28,29(4H,31H)-tetraone], the “Remaining (T = 60 min)” value [1] is reported as 18%, the “Remaining (T = NCF60 min)” value [1] is reported as 99% and the CLint scaled at 1 µM [1] is reported as 54.7 mL/min/kg. The microsomal CLint at 1 µM [1] was 60.8 µL/min/mg, the half-life at 1 µM [1] was 22.8 min and the microsomal CLint at 1 µM [2] was less than 9.6 µL/min/mg. The half-life at 1 µM [2] was greater than 145 min, the “Remaining (T = 60 min)” value [2] was 89% and the “Remaining (T = NCF60 min)” value [2] was 112%. The inhibition at 10 µM ([3]; Homo sapiens, HEK-293T, FKBP12 knock-out cells, 10 μM (highest tested concentration)) was 12%, the “selectivity for FKBP12” value [3] was “selective to FKBP12” and the IC50 [4] was 5.72 nM. The “fold lower potency compared with RAD001 (by IC50)” value [4] was 15 fold and the “extent of inhibition of S6K1” value [4] was “near complete inhibition”.
